Test results from patent US11612587B2, “Composition for preventing or treating hair loss” (KYUNGPOOK NATIONAL UNIVERSITY INDUSTRY-ACADEMIC COOPERATION …, priority 2018, dated 2023).

How the values were obtained:
[1] = system: human hair follicles; assay: recovery of human hair follicle growth inhibition by 15d-PGJ2 in human hair follicle tissue culture; assay type: cell-based; details: for hair follicle growth (hair follicle length when 15d-PGJ2 was treated alone as 100%): 6 days culture, FIG. 5
Method: (§1) Human hair tissue was provided from the hair transplant center of Kyungpook National University and used for the experiment by separating the hair follicles from the scalp tissue with the consent of the hair transplant patient (IRB project number: KNUH2014-02-023). After treatment of each compound, human hair tissue was prepared by incubating a 37° C. CO2 incubator for 6 days using Williams E media (Sigma, USA) containing 2 mM L-glutamine, 100 U/ml streptomycin, and 10 ng/ml hydrocortisone and the length of growth was measured using a microscope.
(§2) The data from the above experiments were expressed as mean±SEM. For statistical processing, the mean deviation of each group was measured using Student's t-test, and it was considered significant at p<0.005 and p<0.05.

[2] = system: human hair follicles; assay: toxicity / growth of cultured human hair follicle tissue treated with the compound alone; assay type: cell-based; details: 6 days culture
Method: as §1, §2

O=C(O)CN1C(=O)C2(CC(=O)N(Cc3cc(Cl)ccc3F)C2=O)c2cc(Cl)ccc21 (stereo not shown) [Compound 1]
hair follicle growth (hair follicle length when 15d-PGJ2 was treated alone as 100%) ([1]; 0.1 nM compound simultaneously with 15d-PGJ2 (10 μM)): 108% | hair follicle growth (hair follicle length when 15d-PGJ2 was treated alone as 100%) ([1]; 1 nM compound simultaneously with 15d-PGJ2 (10 μM)): 194% | hair follicle growth (hair follicle length when 15d-PGJ2 was treated alone as 100%) ([1]; 10 nM compound simultaneously with 15d-PGJ2 (10 μM)): 234% | toxicity in human hair follicle tissue (hair follicle growth vs untreated group) ([2]; compound alone at 0.1-10 nM, FIG. 4): no significant difference

CCCCC/C=C/C=C1/C(=O)C=C[C@@H]1C/C=C\CCCC(=O)O [Compound 15d-PGJ2, 15-deoxy-Δ^12,14-prostaglandin J2, reference compound]
decrease of hair follicle growth ([2]; 15d-PGJ2 alone at 10 μM, FIG. 1): ⅓

CC(C)(C)OC(=O)CN1C(=O)C2(CCNC2=O)c2cc(Cl)ccc21 (stereo not shown) [Compound 2]
hair follicle growth inhibited by 15d-PGJ2 ([1]; Compound 2 0.5 μM, 1 μM simultaneously with 15d-PGJ2 (10 μM), vs 15d-PGJ2 only, FIG. 7): significantly increased | toxicity in human hair follicle tissue (hair follicle growth vs untreated group) ([2]; compound alone at 0.1 to 10 μM, FIG. 6): no significant difference
